From ChEMBL document CHEMBL4483862, “Open-source discovery of chemical leads for next-generation chemoprotective antimalarials” (2018) come the findings set out here.

SMILES strings stand for the structures. pIC50: −log10 of the molar value.

For this test, the system named is Plasmodium berghei. Briefly: Luciferase/luciferin-expressing antifolate-resistant parasites were used to infect a culture of HepG2 cells that were pre-incubated with compounds. Infected hepatocytes emit light due to the luciferase reaction. Assay results are presented as the percent inhibition of light emission compared to control. […]. Format: functional. To be noted: sporozoite; for IC90: read-out: LUCIFERASE INFECTION ASSAY - IC90.

Setting [1] is: read-out: LUCIFERASE INFECTION ASSAY - IC50.

On to `COCCNc1nc2cnc(-c3cccc(Oc4ccccc4)c3)cc2n1C`, for which the IC90 (commonly the concentration at which the effect reaches the 90% level) was more than 10 µM. Further, under “PBLUC_HILL_SLOPE 2.22, PBLUC_R_SQUARED 0.147, read-out: LUCIFERASE INFECTION ASSAY - IC50”, the negative logarithm of the IC50 (pIC50) (usually the IC50 on a negative log10 scale, so that one unit is a factor of ten) was 5.17.

Turning to `CCN(CC)c1ccc(/C=C2\CCC(/C=N/NC(=O)NC3CCCCC3)=C2N2CCOCC2)cc1`, the concentration for an effect of 90% (IC90) was more than 10 µM. Also, under setting [1], the pIC50 was less than 5.00.

`Cc1[nH]c2ccccc2c1C(=O)/C(C#N)=C/c1ccc(-c2ccc(S(=O)(=O)N3CCOCC3)cc2)o1`: the IC90 was more than 10 µM. Besides, the pIC50 (FFLUC_HILL_SLOPE 49.5, FFLUC_R_SQUARED 0.839, HEPG2TOX_HILL_SLOPE 4, HEPG2TOX_R_SQUARED 0.152, PBLUC_HILL_SLOPE 1.9, PBLUC_R_SQUARED 0.247, read-out: LUCIFERASE INFECTION ASSAY - IC50) is 5.29.

As to `CCNc1cc(C(=O)Nc2ccccc2)ncn1`, the IC90 was more than 13.6 µM. The negative-log IC50 (pIC50) under setting [1] is 6.02.

For `Cc1[nH]c2ccccc2c1C(c1ccccc1)N1CCN(C)CC1` (centres undefined), the IC90 was more than 10 µM. Moreover, the pIC50 under setting [1] is less than 5.00.

Take `CC(c1cccc(NC(=O)c2ccccc2)c1)N(C)c1ccc(C#N)cn1` (centres undefined): the IC90 was more than 10 µM. Moreover, the pIC50 (PBLUC_HILL_SLOPE 1.47, PBLUC_R_SQUARED 0.583, read-out: LUCIFERASE INFECTION ASSAY - IC50) was 5.52.

On to `Cc1sc2ncnc(N3CCC(C(=O)N(CC(C)C)c4nc5ccccc5s4)CC3)c2c1C`, for which the IC90 is more than 10 µM. Further, for the setting “PBLUC_HILL_SLOPE 1.15, PBLUC_R_SQUARED 0.711, read-out: LUCIFERASE INFECTION ASSAY - IC50”, the pIC50 was 5.39.

Consider `O=C(Nc1cc(Cl)cc(Cl)c1)c1cc(Cl)c(-n2cccc2)c(Cl)c1`, for which the IC90 worked out at 4.35 µM. The pIC50 (FFLUC_HILL_SLOPE 1.91, FFLUC_R_SQUARED 0.0412, HEPG2TOX_HILL_SLOPE 16.8, HEPG2TOX_R_SQUARED 0.892, PBLUC_HILL_SLOPE 9.75, PBLUC_R_SQUARED 0.262, read-out: LUCIFERASE INFECTION ASSAY - IC50) is 5.46.

With `Cc1nc(SCC(=O)Nc2ccccc2C#N)c2c(-c3cccs3)csc2n1`, the IC90 is more than 10 µM. For the setting “PBLUC_HILL_SLOPE 4.22, PBLUC_R_SQUARED 0.391, read-out: LUCIFERASE INFECTION ASSAY - IC50”, the pIC50 was 5.22.

Turning to `COc1cc(/C=C(/C(=O)c2cccs2)c2nc3ccccc3[nH]2)cc(OC)c1O`, the IC90 is more than 10 µM. Further, under “HEPG2TOX_HILL_SLOPE 9.16, HEPG2TOX_R_SQUARED 0.911, PBLUC_HILL_SLOPE 3.79, PBLUC_R_SQUARED 0.1, read-out: LUCIFERASE INFECTION ASSAY - IC50”, the pIC50 was 5.13.

As for `Nc1ccc(-c2cn3c(-c4ccc(CO)cc4)cnc3cn2)cn1`, the IC90 came to 9.13 µM. The pIC50 under setting [1] was 5.24.

Regarding `Fc1ccc(COc2ccccc2CNCc2cccnc2)cc1`, the concentration for an effect of 90% (IC90) was more than 10.2 µM. The negative logarithm of the IC50 (pIC50) under setting [1] was less than 4.99.

For `COCCCn1c(SCC(=O)NC(=O)Nc2ccccc2)n[nH]c1=O`, the IC90 was more than 10 µM. Also, the pIC50 under setting [1] was less than 5.00.

Take `S=C(N/N=C/c1ccc(Cl)cc1)Nc1cc(Cl)ccc1Cl`: the IC90 is more than 9.2 µM. The pIC50 under setting [1] was less than 5.04.

Take `COc1ccc(O)c(C(=O)c2cnc3cc4c(cc3c2)OCCO4)c1`: the IC90 came to 1.21 µM. Further, the pIC50 (HEPG2TOX_HILL_SLOPE 0.562, HEPG2TOX_R_SQUARED 0.791, PBLUC_HILL_SLOPE 0.753, PBLUC_R_SQUARED 0.781, read-out: LUCIFERASE INFECTION ASSAY - IC50) is 7.18.

As to `Cc1nc(C(N)=NOC(=O)c2c(-c3ccccc3Cl)noc2C)cs1`, the IC90 is more than 8.76 µM. Under setting [1], the pIC50 was less than 5.06.

Regarding `CCN(CC)c1nc(N)c2c(N)nc3c(c2c1C#N)CC(=O)N3c1cc(Cl)cc(Cl)c1`, the IC90 is more than 10 µM. Moreover, the pIC50 (FFLUC_HILL_SLOPE 11.5, FFLUC_R_SQUARED 0.738, PBLUC_HILL_SLOPE 1.44, PBLUC_R_SQUARED 0.624, read-out: LUCIFERASE INFECTION ASSAY - IC50) is 5.38.

Take `NC(Cc1ccc(Cl)cc1)c1csc(Nc2nncc3ccccc23)n1` (centres undefined): the IC90 was more than 8.64 µM. Also, the pIC50 (PBLUC_HILL_SLOPE 1.01, PBLUC_R_SQUARED 0.151, read-out: LUCIFERASE INFECTION ASSAY - IC50) is 5.26.

Regarding `CC(C)(C)c1ccc(C(=O)Nc2ncccc2O)cc1`, the IC90 stood at 0.647 µM. Also, the pIC50 (FFLUC_HILL_SLOPE 1.42, FFLUC_R_SQUARED 0.79, PBLUC_HILL_SLOPE 0.554, PBLUC_R_SQUARED 0.72, read-out: LUCIFERASE INFECTION ASSAY - IC50) was 7.91.

For the compound `Nc1nc(Sc2ncnc3sccc23)nc2sccc12`, the IC90 was 8.89 µM. Besides, the pIC50 (PBLUC_HILL_SLOPE 20, PBLUC_R_SQUARED 0.321, read-out: LUCIFERASE INFECTION ASSAY - IC50) is 5.10.

In the case of `COc1ccc(/C=C/c2nc3cc(C)c(C)cc3s2)c(OC)c1OC`, the IC90 was found to be 8.68 µM. Besides, the pIC50 under setting [1] is 5.37.

As to `Cc1ccc(Sc2nc(-c3cccs3)ns2)cc1`, the IC90 is more than 11.4 µM. For the same compound, the pIC50 (PBLUC_HILL_SLOPE 0.427, PBLUC_R_SQUARED 0.742, read-out: LUCIFERASE INFECTION ASSAY - IC50) was 6.59.

As to `CS(=O)(=O)Nc1cccc(-c2cn3c(-c4cccc(OC(F)(F)F)c4)cnc3cn2)c1`, the IC90 is more than 7.36 µM. In addition, under “PBLUC_HILL_SLOPE 13.3, PBLUC_R_SQUARED 0.233, read-out: LUCIFERASE INFECTION ASSAY - IC50”, the pIC50 was 5.15.

As to `CCn1c(C)nc2cc(C(=O)N/N=C/c3sc(N4CCCCC4)nc3-c3cccs3)ccc21`, the IC90 is 4.03 µM. Moreover, where the note is “HEPG2TOX_HILL_SLOPE 15, HEPG2TOX_R_SQUARED 0.462, PBLUC_HILL_SLOPE 10.3, PBLUC_R_SQUARED 0.738, read-out: LUCIFERASE INFECTION ASSAY - IC50”, the pIC50 is 5.49.

Regarding `COCc1cccc(-c2cc(-c3cccc4ccccc34)cnc2N)c1`, the IC90 was found to be 1.23 µM. Besides, for the setting “HEPG2TOX_HILL_SLOPE 1.78, HEPG2TOX_R_SQUARED 0.808, PBLUC_HILL_SLOPE 16.4, PBLUC_R_SQUARED 0.784, read-out: LUCIFERASE INFECTION ASSAY - IC50”, the pIC50 is 5.97.

Take `Cc1cccc(COc2cccc(C(=O)Nc3cccc(Cn4ccnc4)c3)c2)c1`: the IC90 was more than 10 µM. Moreover, the pIC50 (HEPG2TOX_HILL_SLOPE 5.55, HEPG2TOX_R_SQUARED 0.818, PBLUC_HILL_SLOPE 3.46, PBLUC_R_SQUARED 0.301, read-out: LUCIFERASE INFECTION ASSAY - IC50) is 5.17.

For `CN(C(=O)CSc1nnc(COc2ccccc2F)n1N)C1CCCCC1`, the IC90 was 6.57 µM. Under “HEPG2TOX_HILL_SLOPE 2.33, HEPG2TOX_R_SQUARED 0.96, PBLUC_HILL_SLOPE 2.14, PBLUC_R_SQUARED 0.67, read-out: LUCIFERASE INFECTION ASSAY - IC50”, the pIC50 is 5.63.

As to `Cc1ccc(NS(=O)(=O)c2ccc(NN=CC3C(=O)N(c4cccc(C(F)(F)F)c4)C(=O)c4ccccc43)c([N+](=O)[O-])c2)c(C)c1` (centres undefined), the IC90 is more than 10 µM. Further, where the note is “PBLUC_HILL_SLOPE 19.2, PBLUC_R_SQUARED 0.393, read-out: LUCIFERASE INFECTION ASSAY - IC50”, the pIC50 is 5.01.

Consider `Cc1c(-c2ccccc2)oc2c(C(=O)NCc3ccc(Cn4cccn4)cc3)cccc2c1=O`, for which the IC90 is more than 10 µM. Also, the pIC50 (FFLUC_HILL_SLOPE 3.81, FFLUC_R_SQUARED 0.0734, PBLUC_HILL_SLOPE 3.95, PBLUC_R_SQUARED 0.349, read-out: LUCIFERASE INFECTION ASSAY - IC50) was 5.11.

In the case of `CSc1sc(Cl)c2c1/C(=N\O)CC(C)(C)C2`, the IC90 is more than 12 µM. In addition, the pIC50 under setting [1] is less than 4.92.

Turning to `CC(=N)C(C#N)c1csc(NC(=O)c2cc(-c3ccccc3)nc3c2cnn3C(C)C)n1` (centres undefined), the IC90 was 9.99 µM. For the same compound, under setting [1], the pIC50 was 5.20.

`CC(C)Cc1nc2oc3c(NCCN(C)C)ncnc3c2c2c1COC(C)(C)C2`: the IC90 is more than 8.3 µM. In addition, under “PBLUC_HILL_SLOPE 11.6, PBLUC_R_SQUARED 0.0696, read-out: LUCIFERASE INFECTION ASSAY - IC50”, the pIC50 was 5.12.

Turning to `COc1cc(OC)nc(Nc2nc(C(N)Cc3ccccc3)cs2)n1` (centres undefined), the IC90 turned out to be 7.54 µM. Moreover, where the note is “PBLUC_HILL_SLOPE 4.21, PBLUC_R_SQUARED 0.584, read-out: LUCIFERASE INFECTION ASSAY - IC50”, the pIC50 was 5.35.

On to `Cc1ccc2nc(NC(=O)c3cn(C)nc3-c3ccc4c(c3)OCCCO4)sc2c1`, for which the IC90 was more than 10 µM. Also, the pIC50 under setting [1] is less than 5.00.

With `CC(=O)O[C@H]1CC[C@]2(C)C3CC[C@]4(C)C(C5=CC(=O)OC5)CC[C@]4(O)C3CC[C@@H]2C1` (some centres undefined), the IC90 worked out at 1.14 µM. For the setting “HEPG2TOX_HILL_SLOPE 2.72, HEPG2TOX_R_SQUARED 0.979, PBLUC_HILL_SLOPE 2.85, PBLUC_R_SQUARED 0.935, read-out: LUCIFERASE INFECTION ASSAY - IC50”, the pIC50 is 6.28.

As for `CC1CCCCC1Nc1ncnc2sccc12` (centres undefined), the IC90 is more than 10 µM. Besides, the pIC50 (HEPG2TOX_HILL_SLOPE 0.142, HEPG2TOX_R_SQUARED 0.36, PBLUC_HILL_SLOPE 4.81, PBLUC_R_SQUARED 0.31, read-out: LUCIFERASE INFECTION ASSAY - IC50) is 5.01.

As for `CC(C)C(Nc1ccc(C(F)(F)F)cc1Cl)C(=O)Nc1nc(-c2ccccc2Cl)cs1` (centres undefined), the IC90 is 6.73 µM. The pIC50 (HEPG2TOX_HILL_SLOPE 4.1, HEPG2TOX_R_SQUARED 0.707, PBLUC_HILL_SLOPE 4.35, PBLUC_R_SQUARED 0.154, read-out: LUCIFERASE INFECTION ASSAY - IC50) is 5.39.
